Reference: the supplement of paper PMC10307832

Experiments:
Assay in all cases: relative viability (nuclei count vs DMSO), 5 days (fraction); higher = more cells survive
NCI-H1623 = tested on: NCI-H1623
Summary of the method: (§1)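 Relative viability was taken as the ratio of nuclei in treated wells to nuclei in vehicle wells. Lung cancer cell lines in 1536-well plates received compounds by pin tool one day after seeding, either one drug alone or a fixed anchor-drug dose plus five library-drug doses (not always all listed) in √10 steps. Nuclei were counted on 4× images after 5 days of treatment, and values are medians of duplicate plates.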

NCI-H1734 = tested on: NCI-H1734
Summary of the method: as §1

PC-3 [JPC-3] = tested on: PC-3 [JPC-3]
Summary of the method: as §1

HCC-78 = tested on: HCC-78
Summary of the method: as §1

LK-2 = tested on: LK-2
Summary of the method: as §1

ChaGo-K-1 = tested on: ChaGo-K-1
Summary of the method: as §1

NCI-H2405 = tested on: NCI-H2405
Summary of the method: as §1

NCI-H727 = tested on: NCI-H727
Summary of the method: as §1

NCI-H460 = tested on: NCI-H460
Summary of the method: as §1

NCI-H1355 = tested on: NCI-H1355
Summary of the method: as §1

NCI-H1975 = tested on: NCI-H1975
Summary of the method: as §1

NCI-H2342 = tested on: NCI-H2342
Summary of the method: as §1

LCLC-97TM1 = tested on: LCLC-97TM1
Summary of the method: as §1

NCI-H1648 = tested on: NCI-H1648
Summary of the method: as §1

HOP-62 = tested on: HOP-62
Summary of the method: as §1

NCI-H2228 = tested on: NCI-H2228
Summary of the method: as §1

NCI-H596 = tested on: NCI-H596
Summary of the method: as §1

NCI-H358 = tested on: NCI-H358
Summary of the method: as §1

NCI-H1755 = tested on: NCI-H1755
Summary of the method: as §1

NCI-H1944 = tested on: NCI-H1944
Summary of the method: as §1

NCI-H23 = tested on: NCI-H23
Summary of the method: as §1

NCI-H1993 = tested on: NCI-H1993
Summary of the method: as §1

NCI-H1650 = tested on: NCI-H1650
Summary of the method: as §1

NCI-H2126 = tested on: NCI-H2126
Summary of the method: as §1

Compound: Nc1cccc2c1CN(C1CCC(=O)NC1=O)C2=O (stereo not drawn) [Lenalidomide] + Cc1cc(Nc2cc(N3CCN(C)CC3)nc(Sc3ccc(NC(=O)C4CC4)cc3)n2)n[nH]1 [Tozasertib] (partner 0.1 µM)
- relative viability (NCI-H1623; first compound 0.253 µM): 0.427
- relative viability (NCI-H1623; first compound 0.8 µM): 0.36
- relative viability (NCI-H1623; first compound 2.53 µM): 0.43
- relative viability (NCI-H1623; first compound 8 µM): 0.496
- relative viability (NCI-H1734; first compound 0.253 µM): 0.312
- relative viability (NCI-H1734; first compound 0.8 µM): 0.271
- relative viability (NCI-H1734; first compound 2.53 µM): 0.232
- relative viability (NCI-H1734; first compound 8 µM): 0.238
- relative viability (PC-3 [JPC-3]; first compound 0.253 µM): 0.909
- relative viability (PC-3 [JPC-3]; first compound 0.8 µM): 0.899
- relative viability (PC-3 [JPC-3]; first compound 2.53 µM): 1.03
- relative viability (PC-3 [JPC-3]; first compound 8 µM): 0.955
- relative viability (HCC-78; first compound 0.253 µM): 0.537
- relative viability (HCC-78; first compound 0.8 µM): 0.44
- relative viability (HCC-78; first compound 2.53 µM): 0.443
- relative viability (HCC-78; first compound 8 µM): 0.49
- relative viability (LK-2; first compound 0.253 µM): 0.175
- relative viability (LK-2; first compound 0.8 µM): 0.197
- relative viability (LK-2; first compound 2.53 µM): 0.164
- relative viability (LK-2; first compound 8 µM): 0.135
- relative viability (ChaGo-K-1; first compound 0.253 µM): 0.242
- relative viability (ChaGo-K-1; first compound 0.8 µM): 0.228
- relative viability (ChaGo-K-1; first compound 2.53 µM): 0.249
- relative viability (ChaGo-K-1; first compound 8 µM): 0.231
- relative viability (NCI-H2405; first compound 0.253 µM): 0.738
- relative viability (NCI-H2405; first compound 0.8 µM): 0.766
- relative viability (NCI-H2405; first compound 2.53 µM): 0.778
- relative viability (NCI-H2405; first compound 8 µM): 0.78
- relative viability (NCI-H727; first compound 0.253 µM): 0.615
- relative viability (NCI-H727; first compound 0.8 µM): 0.585
- relative viability (NCI-H727; first compound 2.53 µM): 0.56
- relative viability (NCI-H727; first compound 8 µM): 0.756
- relative viability (NCI-H460; first compound 0.253 µM): 0.393
- relative viability (NCI-H460; first compound 0.8 µM): 0.396
- relative viability (NCI-H460; first compound 2.53 µM): 0.49
- relative viability (NCI-H460; first compound 8 µM): 0.587
- relative viability (NCI-H1355; first compound 0.253 µM): 0.578
- relative viability (NCI-H1355; first compound 2.53 µM): 0.559
- relative viability (NCI-H1355; first compound 8 µM): 0.59
- relative viability (NCI-H1975; first compound 0.253 µM): 0.886
- relative viability (NCI-H1975; first compound 0.8 µM): 0.755
- relative viability (NCI-H1975; first compound 2.53 µM): 0.844
- relative viability (NCI-H1975; first compound 8 µM): 0.849
- relative viability (NCI-H2342; first compound 0.253 µM): 0.504
- relative viability (NCI-H2342; first compound 0.8 µM): 0.49
- relative viability (NCI-H2342; first compound 2.53 µM): 0.649
- relative viability (NCI-H2342; first compound 8 µM): 0.441
- relative viability (LCLC-97TM1; first compound 0.253 µM): 0.227
- relative viability (LCLC-97TM1; first compound 0.8 µM): 0.277
- relative viability (LCLC-97TM1; first compound 2.53 µM): 0.256
- relative viability (LCLC-97TM1; first compound 8 µM): 0.232
- relative viability (NCI-H1648; first compound 0.253 µM): 0.578
- relative viability (NCI-H1648; first compound 0.8 µM): 0.317
- relative viability (NCI-H1648; first compound 2.53 µM): 0.509
- relative viability (NCI-H1648; first compound 8 µM): 0.599
- relative viability (HOP-62; first compound 0.253 µM): 0.359
- relative viability (HOP-62; first compound 0.8 µM): 0.41
- relative viability (HOP-62; first compound 2.53 µM): 0.352
- relative viability (HOP-62; first compound 8 µM): 0.405
- relative viability (NCI-H2228; first compound 0.253 µM): 0.288
- relative viability (NCI-H2228; first compound 0.8 µM): 0.338
- relative viability (NCI-H2228; first compound 2.53 µM): 0.283
- relative viability (NCI-H2228; first compound 8 µM): 0.345
- relative viability (NCI-H596; first compound 0.253 µM): 0.755
- relative viability (NCI-H596; first compound 2.53 µM): 0.904
- relative viability (NCI-H596; first compound 8 µM): 0.774
- relative viability (NCI-H358; first compound 0.253 µM): 0.12
- relative viability (NCI-H358; first compound 0.8 µM): 0.107
- relative viability (NCI-H358; first compound 2.53 µM): 0.103
- relative viability (NCI-H358; first compound 8 µM): 0.0989
- relative viability (NCI-H1755; first compound 0.253 µM): 0.638
- relative viability (NCI-H1755; first compound 0.8 µM): 0.614
- relative viability (NCI-H1755; first compound 2.53 µM): 0.597
- relative viability (NCI-H1755; first compound 8 µM): 0.541
- relative viability (NCI-H1944; first compound 0.253 µM): 0.234
- relative viability (NCI-H1944; first compound 0.8 µM): 0.278
- relative viability (NCI-H1944; first compound 2.53 µM): 0.285
- relative viability (NCI-H1944; first compound 8 µM): 0.232
- relative viability (NCI-H23; first compound 0.253 µM): 0.438
- relative viability (NCI-H23; first compound 0.8 µM): 0.343
- relative viability (NCI-H23; first compound 2.53 µM): 0.723
- relative viability (NCI-H23; first compound 8 µM): 0.405
- relative viability (NCI-H1993; first compound 0.253 µM): 0.529
- relative viability (NCI-H1993; first compound 0.8 µM): 0.572
- relative viability (NCI-H1993; first compound 2.53 µM): 0.618
- relative viability (NCI-H1993; first compound 8 µM): 0.524
- relative viability (NCI-H1650; first compound 0.8 µM): 0.58
- relative viability (NCI-H1650; first compound 2.53 µM): 0.563
- relative viability (NCI-H1650; first compound 8 µM): 0.592
- relative viability (NCI-H2126; first compound 0.253 µM): 0.873
- relative viability (NCI-H2126; first compound 0.8 µM): 0.817
- relative viability (NCI-H2126; first compound 2.53 µM): 0.82
- relative viability (NCI-H2126; first compound 8 µM): 0.737
